Laboratory results taken from PubChem BioAssay (NCI).
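These data come from cells grown in 96-well plates and exposed to compound for 48 hours at five concentrations. GI50 = concentration required for 50% inhibition of growth. TGI is the concentration that stops growth completely.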

Columns and labels:
Test in all cases: NCI-60 cell line screen, 48 h
[1] = system: A549 NSCLC
[2] = system: MALME-3M melanoma
[3] = system: SN12C renal
[4] = system: HOP-92 NSCLC
[5] = system: UO-31 renal
[6] = system: NCI-H522 lung
[7] = system: U251 CNS
[8] = system: OVCAR-3 ovarian
[9] = system: T-47D breast
[10] = system: MCF7 breast

Cc1cccc(C)c1NC(=O)CCc1nc(=S)[nH][nH]1
TGI [1]: > 100 µM | TGI [2]: > 100 µM | TGI [3]: > 100 µM | TGI [4]: > 100 µM | TGI [5]: > 100 µM | TGI [6]: > 100 µM | TGI [7]: > 100 µM

CC(C)OP(=O)(OC(C)C)/C(N)=N/Nc1ccc([N+](=O)[O-])cc1
TGI [1]: > 100 µM | TGI [2]: > 100 µM | TGI [3]: > 100 µM | TGI [4]: > 100 µM | TGI [5]: > 100 µM | TGI [8]: > 100 µM | TGI [6]: > 100 µM | TGI [7]: > 100 µM

Cn1c(-c2ccc(/C=N/NC(=S)N/N=C/c3ccc(-c4c[n+]5ccsc5n4C)cc3)cc2)c[n+]2ccsc12
TGI [1]: > 100 µM | TGI [9]: > 100 µM | TGI [3]: > 100 µM | TGI [10]: > 100 µM | TGI [5]: > 100 µM | TGI [6]: > 100 µM | TGI [7]: > 100 µM

Cc1c(NC(=S)NC(=O)c2ccc([N+](=O)[O-])cc2)c(=O)n(-c2ccccc2)n1C
TGI [1]: > 100 µM | TGI [2]: > 100 µM | TGI [3]: > 100 µM | TGI [4]: > 100 µM | TGI [5]: > 100 µM | TGI [8]: > 100 µM | TGI [6]: > 100 µM | TGI [7]: > 100 µM

N/N=C1\C(=O)N(c2ccc(Cl)cc2Cl)C(=O)C(=O)C1c1nc2ccccc2o1 (stereo not drawn)
TGI [1]: > 100 µM | TGI [2]: > 100 µM | TGI [3]: > 100 µM | TGI [4]: > 100 µM | TGI [5]: > 100 µM | TGI [8]: > 100 µM | TGI [6]: > 100 µM | TGI [7]: > 100 µM

CC1=Cc2ccc(C)cc2C(=O)C1=O
TGI [1]: 50.2 µM | TGI [9]: 5.36 µM | TGI [3]: 12.8 µM | TGI [4]: 17.6 µM | TGI [10]: 54.5 µM | TGI [5]: 3.04 µM | TGI [8]: 49.4 µM | TGI [6]: 4.15 µM | TGI [7]: 45.2 µM

COc1cc2c(cc1OC)C(=O)/C(=C/c1cc(-c3ccc4c(c3)OCO4)n[nH]1)C2
GI50 [1]: 1.96 µM | TGI [1]: 5.45 µM | GI50 [2]: 1.74 µM | TGI [2]: 3.6 µM | GI50 [9]: 1.31 µM | TGI [9]: 2.72 µM | GI50 [3]: 1.59 µM | TGI [3]: 2.99 µM | GI50 [10]: 0.339 µM | TGI [10]: 1.42 µM | GI50 [5]: 1.29 µM | TGI [5]: 2.67 µM | GI50 [8]: 1.41 µM | TGI [8]: 2.8 µM | GI50 [6]: 0.258 µM | TGI [6]: 0.871 µM | GI50 [7]: 1.09 µM | TGI [7]: 2.31 µM

COc1ncnc(S(=O)(=O)c2ccc(N=C3C(=O)N(CN4CCN(c5cc6c(cc5F)c(=O)c(C(=O)O)cn6C5CC5)CC4)c4ccc(Cl)cc43)cc2)c1OC
GI50 [1]: > 50 µM | TGI [1]: > 50 µM | GI50 [9]: > 50 µM | TGI [9]: > 50 µM | GI50 [3]: 30.4 µM | TGI [3]: > 50 µM | GI50 [4]: > 50 µM | TGI [4]: > 50 µM | GI50 [10]: 34.1 µM | TGI [10]: > 50 µM | GI50 [5]: 47.2 µM | TGI [5]: > 50 µM | GI50 [8]: > 50 µM | TGI [8]: > 50 µM | GI50 [6]: > 50 µM | TGI [6]: > 50 µM | GI50 [7]: 18.7 µM | TGI [7]: > 50 µM

CC1CCSC(N(C(=O)N(C)c2ccccc2)c2ccccc2)=N1 (stereo not drawn)
TGI [1]: > 100 µM | TGI [2]: > 100 µM | TGI [3]: > 100 µM | TGI [5]: > 100 µM | TGI [8]: > 100 µM | TGI [6]: > 100 µM | TGI [7]: > 100 µM

COC(=O)CC(NC(=O)OCc1ccccc1)C(C(=O)OCc1ccccc1)C(C)(OC)OC (stereo not drawn)
TGI [1]: 85.1 µM | TGI [2]: 80.9 µM | TGI [3]: > 100 µM | TGI [5]: 68.7 µM | TGI [8]: > 100 µM | TGI [7]: > 100 µM

O=C1C=CC(=O)c2c(O)c(NCCOCCO)c(Cl)c(O)c21
TGI [1]: 19.1 µM | TGI [2]: 8.43 µM | TGI [3]: 23 µM | TGI [4]: 39.4 µM | TGI [5]: 29.7 µM | TGI [6]: 3.69 µM | TGI [7]: 30.7 µM
